# Results as given in patent US8846654B2, “Therapeutic applications in the cardiovascular field of quinazolinedione derivatives” (Sanofi, priority 2009, dated 2014).
# System: Male C57B6 mice
# Test: Murine model of myocardial infarction resulting from an ischemia-reperfusion episode
# Type: in vivo
# Details: 3 mg/kg intravenously 5 minutes before reperfusion; 45 min coronary occlusion, 24 hours of reperfusion; compared with the vehicle
# Method: 3) Evaluation of the Compounds in Accordance with the Invention in a Murine Model of Myocardial Infarction Resulting from an Ischemia-Reperfusion Episode
# Male C57B6 mice (23-26 g) are anaesthetized (ketamine 1 g/kg+xylazine 0.02 g/kg, IP) and placed under respiratory assistance before being subjected to a thoracotomy targeted at exposing the heart. Cardiac ischemia is then induced by the transient ligation of the left coronary artery. After 45 minutes of coronary occlusion, the ligature is removed in order to make possible reperfusion of the region rendered ischemic. After closing the thorax and restoring the pleural cavity, the animals are placed in a revival cage.
# Test compounds Nos 11, 56, 233 and 309 are administered 5 minutes before reperfusion intravenously at a dose of 3 mg/kg and compared with the vehicle (7.5% Cremophor RH40+22.5% glycofurol in a physiological serum solution).
# After 24 hours of cardiac reperfusion, the animals are again anaesthetized (ketamine 1 g/kg+xylazine 0.02 g/kg, IP) before intravenously receiving sodium nitroprusside (1 mg/ml at 1 ml/min for 4 minutes) in order to dilate the coronary vasculature. The left coronary artery is religatured and a solution of Evans blue (3%, 200 to 300 μl) is injected by carotid retroperfusion in order to determine the region at ventricular risk. The heart is then removed and immersed in a saturated KCl solution in order to stop it in diastole. Transverse sections of 1 mm are produced, incubated in triphenyltetrazolium chloride (1% in PBS) at 37° C. for 2 minutes and then placed in formaldehyde (4%) overnight. The tetrazolium salt makes it possible to visualize the viable region within the region at risk. The surface area of the infarction with respect to the region at risk is determined by image analysis.
row,SMILES,"reduction of the size of the infarction, expressed with respect to the region at risk"
1,"COc1ccc(Cn2c(=O)c3cc(OC(CF)CF)ccc3n(C3CCN(C=O)CC3)c2=O)cc1OC [No. 11, 4-[3-(3,4-dimethoxybenzyl)-6-[2-fluoro-1-(fluoromethyl)ethoxy]-2,4-dioxo-3,4-dihydroquinazolin-1(2H)-yl]piperidine-1-carbaldehyde]",43%
2,"COc1cc(Cn2c(=O)c3cc(OC(CF)CF)ccc3n(C3CCN(C=O)CC3)c2=O)ccc1OC1CCCC1 [No. 56, 4-{3-[4-(cyclopentyloxy)-3-methoxybenzyl]-6-[2-fluoro-1-(fluoromethyl)ethoxy]-2,4-dioxo-3,4-dihydroquinazolin-1(2H)-yl}piperidine-1-carbaldehyde]",33%
3,"COc1ccc(Cn2c(=O)c3cc(OC(CF)CF)c(F)cc3n(C3CCN(C=O)CC3)c2=O)cc1OC [No. 233, 4-[3-(3,4-dimethoxybenzyl)-7-fluoro-6-[2-fluoro-1-(fluoromethyl)ethoxy]-2,4-dioxo-3,4-dihydroquinazolin-1(2H)-yl]piperidine-1-carbaldehyde]",40%
4,"COc1cc(Cn2c(=O)c3cc(OC(CF)CF)c(F)cc3n(C3CCN(C=O)CC3)c2=O)ccc1OCC1CC1 [No. 309, 4-{3-[4-(cyclopropylmethoxy)-3-methoxybenzyl]-7-fluoro-6-[2-fluoro-1-(fluoromethyl)ethoxy]-2,4-dioxo-3,4-dihydroquinazolin-1(2H)-yl}piperidine-1-carbaldehyde]",32%

# System: PDE8
# Test: PDE8 enzymatic assay equivalent to that described for PDE7
# Type: biochemical
# Details: not given
# From the text: 2) Measurement of the Inhibitory Activity of the Compounds in Accordance with the Invention with Regard to PDE8
row,SMILES,IC50
1,"COc1ccc(Cn2c(=O)c3cc(OC(CF)CF)ccc3n(C3CCN(C=O)CC3)c2=O)cc1OC [No. 11, 4-[3-(3,4-dimethoxybenzyl)-6-[2-fluoro-1-(fluoromethyl)ethoxy]-2,4-dioxo-3,4-dihydroquinazolin-1(2H)-yl]piperidine-1-carbaldehyde]",140 nM
2,"N#Cc1cc(Cn2c(=O)c3cc(OC(CF)CF)ccc3n(C3CCN(C=O)CC3)c2=O)ccc1-c1ccccc1 [No. 294, 4-({6-[2-fluoro-1-(fluoromethyl)ethoxy]-1-(1-formylpiperidin-4-yl)-2,4-dioxo-1,4-dihydroquinazolin-3(2H)-yl}methyl)biphenyl-2-carbonitrile]",15 nM
